{"source": "patent US20080312311A1", "about": "“Crystalline forms of 3-(2R-tetrahydrofuryl-methyl)-2-thioxanthine” (ASTRAZENECA AB, priority 2007, published 2008)", "key": {"[1]": {"experiment": "polymorph transformation on stirring in solution", "format": "physicochemical"}, "[2]": {"experiment": "relative stability of crystal forms versus temperature", "format": "physicochemical"}}}
{"smiles": "O=c1[nH]c(=S)n(C[C@H]2CCCO2)c2nc[nH]c12", "note": "[3-(2R-tetrahydrofuryl-methyl)-2-thioxanthine]", "values": [{"measurement": "polymorph transformation on stirring in solution", "setting": "[1]; stirring in a solution about or above 60° C.", "result": "transforms it to polymorph B"}, {"measurement": "polymorph transformation on stirring in solution", "setting": "[1]; stirring in solutions about or below 60° C.", "result": "transforms it to polymorph A"}, {"measurement": "relative stability of the crystalline form", "setting": "[2]; at ambient temperature, such as room temperature, Form A versus Form B", "result": "more stable"}, {"measurement": "relative stability of the crystalline form", "setting": "[2]; at temperatures over +65° C., Form B versus Form A", "result": "more stable"}]}
